US10501482B2, “Compounds for treating spinal muscular atrophy” (Hoffmann-La Roche Inc., priority 2013, dated 2019)
Counter-ions that a name gives are not always drawn.

Legend:
[1] = tested on: full length SMN2 minigene mRNA (FL SMN2mini) in HEK293H cells stably transfected with the SMN2-A minigene construct; experiment: SMN2 minigene mRNA splicing RT-qPCR assay in cultured cells; type: cell-based; details: Homo sapiens, HEK293-H, 24 hours, 7-point concentration curve, concentration giving 1.5-fold FL SMN2mini mRNA vs vehicle, read-out: EC1.5x minigene (EC1.5x concentration for production of full length SMN2 minigene mRNA)
Summary of the method: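 Stably transfected HEK293H cells, 10,000/well in DMEM/10% FBS with hygromycin, attached 6 h, then received compound for 24 h at 37° C in duplicate at 7 concentrations. Multiplex RT-qPCR with GAPDH used primers that detect only the minigene. An efficiency-corrected ΔΔCt, GAPDH- and vehicle-normalized, gave EC1.5x concentrations.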

[2] = tested on: SMN protein; experiment: SMN protein assay (HTRF) in cultured SMA patient fibroblast cells; type: cell-based; details: SMA Type 1 human fibroblasts GM03813, 48 hours; for EC1.5x SMN protein (EC1.5x concentration for SMN protein expression): 7-point concentration curve, concentration giving 1.5 times SMN protein vs vehicle; for max. fold increase (maximum fold increase of SMN protein): 7-point concentration data, fold vs vehicle control
Summary of the method: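 SMA patient fibroblasts seeded at 5,000 cells/well, treated 48 h at 37 °C in triplicate per concentration (7-point series). Lysed in RIPA with protease inhibitors; SMN read by HTRF (anti-SMN d2/kryptate, overnight RT), 665/620 nm ratio. ΔF vs blank, expressed as fold over vehicle; EC1.5x and maximum fold increase derived.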

SMILES	EC (1.5-fold) [1] [µM]	EC1.5x SMN protein (EC1.5x concentration for SMN protein expression) [2] [µM]	max. fold increase (maximum fold increase of SMN protein) [2]
Cc1nc2c(F)cc(NC(=O)c3ccc(N4CCNCC4)cc3F)cc2o1 [Example 58, 2-fluoro-N-(4-fluoro-2-methyl-benzo[d]oxazol-6-yl)-4-(piperazin-1-yl)benzamide]	0.0398	0.1159	1.7744
Cc1cn2cc(NC(=O)c3ccc(N4CCNCC4)cc3F)cc(C(F)(F)F)c2n1 [Example 59, 2-fluoro-N-(2-methyl-8-(trifluoromethyl)-imidazo[1,2-a]-pyridin-6-yl)-4-(piperazin-1-yl)-benzamide]	0.109	0.2749	1.7116
Cc1cn2cc(NC(=O)c3ccc(C4=CCNCC4)cc3F)ccc2n1 [Example 60, 2-fluoro-N-(2-methylimidazo[1,2-a]pyridin-6-yl)-4-(1,2,3,6-tetrahydro-pyridin-4-yl)-benzamide hydrochloride]	0.0428	0.107	1.7375
Cc1cn2cc(NC(=O)c3ccc(C4=CCNCC4)cc3F)cc(F)c2n1 [Example 61, 2-fIuoro-N-(8-fluoro-2-methyl-imidazo[1,2-a]-pyridin-6-yl)-4-(1,2,3,6-tetra-hydropyridin-4-yl)benzamide hydrochloride]	0.01		1.7077
Cc1cn2cc(NC(=O)c3ccc(C4=CCNCC4)nc3)cc(F)c2n1 [Example 62, N-(8-fluoro-2-methylimidazo[1,2-a]pyridin-6-yl)-6-(1,2,3,6-tetra-hydropyridin-4-yl)nicotinamide dihydrochloride]	0.0136		1.5583
Cc1cn2cc(NC(=O)c3ccc(C4=CCNCC4)cn3)ccc2n1 [Example 63, N-(2-methyl-imidazo[1,2-a]-pyridin-6-yl)-5-(1,2,3,6-tetra-hydropyridin-4-yl)picolinamide dihydrochloride]	0.16	1.0431	1.6807
COc1nc(N2CCNCC2)ccc1C(=O)Nc1cc(F)c2nc(C)cn2c1 [Example 64, N-(8-fluoro-2-methylimidazo[1,2-a]pyridin-6-yl)-2-methoxy-6-(piperazin-1-yl)nicotinamide]	0.0291	0.1192	1.7581
Cc1cn2cc(NC(=O)c3ccc(N4CCNCC4)nc3F)cc(F)c2n1 [Example 65, 2-fIuoro-N-(8-fluoro-2-methylimidazo[1,2-a]pyridin-6-yl)-6-(piperazin-1-yl)-nicotinamide]	0.0762	0.1135	1.7675
Cc1cn2cc(NC(=O)c3ccc(N4CCNCC4)c(C)c3)cc(F)c2n1 [Example 66, N-(8-fluoro-2-methylimidazo[1,2-a]pyridin-6-yl)-3-methyl-4-(piperazin-1-yl)benzamide]	0.518	0.6108	1.5438
Cc1cn2cc(NC(=O)c3cnc(N4CCNCC4)c(C)c3)cc(F)c2n1 [Example 67, N-(8-fluoro-2-methylimidazo[1,2-a]pyridin-6-yl)-5-methyl-6-(piperazin-1-yl)nicotinamide]	0.318	0.866	1.6552
Cc1cn2cc(NC(=O)c3cnc(N4CCNCC4)cc3F)cc(F)c2n1 [Example 68, 4-fluoro-N-(8-fluoro-2-methylimidazo[1,2-a]pyridin-6-yl)-6-(piperazin-1-yl)nicotinamide]	0.0285	0.057	1.6943
COc1cc(N2CCNCC2)ncc1C(=O)Nc1cc(F)c2nc(C)cn2c1 [Example 69, N-(8-fluoro-2-methylimidazo[1,2-a]pyridin-6-yl)-4-methoxy-6-(piperazin-1-yl)nicotinamide]	0.0308	0.1645	1.7612
Cc1cn2cc(NC(=O)c3cnc(N4CCNCC4)cc3OCC(F)(F)F)cc(F)c2n1 [Example 71, N-(8-fluoro-2-methylimidazo[1,2-a]pyridin-6-yl)-6-(piperazin-1-yl)-4-(2,2,2-trifluoro-ethoxy)nicotinamide]	0.077	0.4077	1.4815
CCOc1nc(N2CCNCC2)ccc1C(=O)Nc1cc(F)c2nc(C)cn2c1 [Example 72, 2-ethoxy-N-(8-fluoro-2-methylimidazo[1,2-a]pyridin-6-yl)-6-(piperazin-1-yl)-nicotinamide]	0.015	0.1324	1.7095
Cc1cn2cc(NC(=O)c3ccc(N4CCNCC4)nc3OCC(F)(F)F)cc(F)c2n1 [Example 73, N-(8-fluoro-2-methylimidazo[1,2-a]pyridin-6-yl)-6-(piperazin-1-yl)-2-(2,2,2-trifluoro-ethoxy)nicotinamide]	0.062	0.7589	1.5775
COc1nc(N2CCNC(C)(C)C2)ccc1C(=O)Nc1cc(F)c2nc(C)cn2c1 [Example 75, 6-(3,3-dimethyl-piperazin-1-yl)-N-(8-fluoro-2-methyl-imidazo[1,2-a]-pyridin-6-yl)-2-methoxynicotinamide]	0.0654	0.3061	1.7035
Cc1cn2cc(NC(=O)c3ccc(C4=CCNCC4)nc3)ccc2n1.Cl [Example 77, N-(2-methylimidazo[1,2-a]pyridin-6-yl)-6-(1,2,3,6-tetrahydropyridin-4-yl)nicotinamide hydrochloride]	0.0641	0.2279	1.6649
Cc1cn2cc(NC(=O)c3ccc(C4CCN(C)CC4)nc3)ccc2n1 [Example 78, N-(2-methylimidazo[1,2-a]pyridin-6-yl)-6-(1-methylpiperidin-4-yl)nicotinamide]	0.622	1.013	1.7897
Cc1cn2cc(NC(=O)c3ccc(C4CCNCC4)nc3)cc(F)c2n1 [Example 79, N-(8-fluoro-2-methylimidazo[1,2-a]pyridin-6-yl)-6-(piperidin-4-yl)nicotinamide dihydrochloride]	0.0559	0.2559	1.6574
Cc1cn2cc(NC(=O)c3ccc(C4CCN(C)CC4)nc3)cc(F)c2n1 [Example 80, N-(8-fluoro-2-methylimidazo[1,2-a]pyridin-6-yl)-6-(1-methylpiperidin-4-yl)nicotinamide]	0.115	0.52	1.5928
Cc1cn2cc(NC(=O)c3ccc(C4CCNCC4)cc3F)cc(F)c2n1.Cl [Example 81, 2-fluoro-N-(8-fluoro-2-methylimidazo[1,2-a]pyridin-6-yl)-4-(piperidin-4-yl)benzamide hydrochloride]	0.0374	0.2723	1.6719
